Measured values: ChEMBL document CHEMBL1201862, “PubChem BioAssay data set” (2004)
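48-hour exposure; five concentrations; linearly interpolated endpoints. GI50: concentration for 50% inhibition of growth.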 Calls of active or inactive are those of the source. No stated cut-off is given here; in the data, active = GI50 up to about 1.1 µM and inactive = higher.

Tests used:
Test in all cases: DTP human tumour cell line panel, 48 h
786-0 = system: 786-0
ACHN = system: ACHN
BT-549 = system: BT-549
CAKI-1 = system: CAKI-1
HCT-116 = system: HCT-116
IGROV-1 = system: IGROV-1
K562 = system: K562
LOX IMVI = system: LOX IMVI
NCI-H226 = system: NCI-H226
NCI-H23 = system: NCI-H23
SF-295 = system: SF-295
SK-MEL-2 = system: SK-MEL-2
SNB-19 = system: SNB-19
SW-620 = system: SW-620
T47D = system: T47D
TK-10 = system: TK-10
U-251 = system: U-251
UACC-257 = system: UACC-257
UO-31 = system: UO-31
HCC 2998 = system: HCC 2998

Measured: GI50

Cc1nn(-c2ccccc2)c(C)c1/C=N/N=C1\S/C(=C\c2ccc(Cl)cc2)C(=O)N1c1ccccc1
inactive: 786-0 3.13 µM | ACHN 68.7 µM | BT-549 > 100 µM | CAKI-1 > 100 µM | HCT-116 9.48 µM | IGROV-1 5.83 µM | K562 7.91 µM | LOX IMVI > 100 µM | NCI-H226 > 100 µM | NCI-H23 7.38 µM | SF-295 > 100 µM | SK-MEL-2 > 100 µM | SNB-19 48.8 µM | SW-620 9.2 µM | T47D > 100 µM | TK-10 14.2 µM | U-251 10.9 µM | UACC-257 > 100 µM | UO-31 > 100 µM

CNC(=O)c1ccc(C(=O)NCCCCCN(O)C(=O)CCC(=O)NCCCCCN(O)C(=O)CCC(=O)NCCCCCN(O)C(C)=O)c(O)c1O
inactive: 786-0 69.3 µM | ACHN 32.8 µM | BT-549 56.6 µM | CAKI-1 55.3 µM | HCC 2998 > 100 µM | HCT-116 32.9 µM | IGROV-1 60.4 µM | K562 65 µM | LOX IMVI 18.3 µM | NCI-H226 > 100 µM | NCI-H23 65.9 µM | SF-295 42.6 µM | SK-MEL-2 95.7 µM | SNB-19 62.7 µM | SW-620 39.3 µM | TK-10 78.9 µM | U-251 33.9 µM | UACC-257 68.5 µM | UO-31 24.3 µM

COc1ccc(/N=N/c2c(C)c(C#N)c(=S)n(C3OC(CO)C(O)C(O)C3O)c2C)cc1 (stereo unspecified)
inactive: 786-0 44.2 µM | ACHN 36.4 µM | BT-549 32.7 µM | CAKI-1 56.2 µM | HCT-116 31.6 µM | IGROV-1 54.1 µM | K562 29 µM | LOX IMVI 56.4 µM | NCI-H23 35.6 µM | SF-295 52.1 µM | SK-MEL-2 71.3 µM | SNB-19 38.3 µM | SW-620 44.1 µM | T47D 28.6 µM | TK-10 82 µM | U-251 51.5 µM | UACC-257 71.9 µM | UO-31 41.9 µM

COc1c2cc([N+](=O)[O-])cc1CN(C(=O)C(F)(F)F)CCOCCN(C(=O)C(F)(F)F)C2
inactive: 786-0 > 100 µM | ACHN > 100 µM | BT-549 70.6 µM | CAKI-1 > 100 µM | HCT-116 > 100 µM | IGROV-1 > 100 µM | LOX IMVI > 100 µM | NCI-H226 > 100 µM | NCI-H23 > 100 µM | SF-295 > 100 µM | SK-MEL-2 > 100 µM | SNB-19 > 100 µM | SW-620 > 100 µM | T47D > 100 µM | TK-10 > 100 µM | U-251 > 100 µM | UACC-257 > 100 µM | UO-31 > 100 µM

CC1CC(c2ccccc2)Nc2nc3ccccc3n21 (stereo unspecified)
inactive: 786-0 > 100 µM | ACHN > 100 µM | BT-549 > 100 µM | CAKI-1 > 100 µM | HCT-116 66.4 µM | IGROV-1 > 100 µM | K562 > 100 µM | LOX IMVI > 100 µM | NCI-H226 > 100 µM | NCI-H23 > 100 µM | SF-295 > 100 µM | SK-MEL-2 > 100 µM | SNB-19 > 100 µM | SW-620 > 100 µM | T47D > 100 µM | TK-10 > 100 µM | U-251 > 100 µM | UACC-257 > 100 µM | UO-31 59.8 µM

COC(=O)Nc1nc2cc(S(=O)(=O)N3CCOCC3)ccc2[nH]1
inactive: 786-0 > 100 µM | ACHN > 100 µM | BT-549 > 100 µM | CAKI-1 > 100 µM | HCT-116 > 100 µM | IGROV-1 > 100 µM | K562 44.7 µM | LOX IMVI > 100 µM | NCI-H226 > 100 µM | NCI-H23 > 100 µM | SF-295 > 100 µM | SK-MEL-2 > 100 µM | SNB-19 > 100 µM | SW-620 54.1 µM | T47D > 100 µM | TK-10 80.2 µM | U-251 > 100 µM | UACC-257 > 100 µM | UO-31 > 100 µM

C#CCOC(=O)c1ccccc1OC(C)=O
inactive: 786-0 > 100 µM | ACHN > 100 µM | BT-549 > 100 µM | CAKI-1 > 100 µM | HCT-116 > 100 µM | IGROV-1 > 100 µM | K562 > 100 µM | LOX IMVI > 100 µM | NCI-H226 > 100 µM | NCI-H23 > 100 µM | SF-295 > 100 µM | SK-MEL-2 > 100 µM | SNB-19 > 100 µM | SW-620 > 100 µM | T47D > 100 µM | TK-10 > 100 µM | U-251 > 100 µM | UACC-257 > 100 µM | UO-31 > 100 µM
